Consider four compounds from paper PMC5407626 (PLoS ONE, 2017).

pIC50: −log10 of the molar value. Values joined by “and” are separate entries in the source; they are usually repeats but may differ in a detail not shown here. Identical values can stand only once.

One test deals with T1, DES1 (Homo sapiens, UniProt O15121).
T1 construct: endogenous in cells; host or cells: ARPE-19
T1 sequence (O15121 1-323): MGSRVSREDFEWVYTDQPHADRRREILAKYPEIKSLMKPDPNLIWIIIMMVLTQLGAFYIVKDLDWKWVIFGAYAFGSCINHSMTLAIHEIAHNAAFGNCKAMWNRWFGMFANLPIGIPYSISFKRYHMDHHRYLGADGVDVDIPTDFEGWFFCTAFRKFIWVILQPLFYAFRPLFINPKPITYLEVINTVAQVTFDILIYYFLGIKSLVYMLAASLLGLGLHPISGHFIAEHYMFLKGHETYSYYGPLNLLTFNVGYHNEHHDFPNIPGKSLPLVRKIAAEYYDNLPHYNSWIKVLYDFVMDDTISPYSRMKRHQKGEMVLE
Kind of test: DES1 activity in ARPE-19 cells (dihydroceramide/ceramide ratio, LC/MS). Particulars: 10 μM, 24 h; for increase in dihydroceramide/ceramide ratio, C18 ceramide: compared to DMSO control; for MEAN RATIO (DH / C) C16 / MEAN RATIO C18 DHCER/CER: mean of 3; for MEAN RATIO (DH / C) C16: DMSO 0.08; for MEAN RATIO C18 DHCER/CER: DMSO 0.289. It counts as cell-based. The arrangement: DHCER (C18) / CER (C18) / DHCER (C16) / CER (C16): unit not given here. On the procedure:
ARPE-19 cells were seeded onto tissue culture plates at a density of 2x10^5 cells/ml in complete medium and allowed to grow overnight. Cells were then treated with retinoids (10 μM) or vehicle (control) for 24 hours in a 37°C, 5% CO2 incubator at which time cells were harvested and total lipids were extracted into methyl-tert-butyl ether (MTBE) using the method of Matyash et al.. Extracted lipids normalized to total protein as described were subjected to liquid chromatography mass spectrometry (LC/MS) to determine the sphingolipid content in treated ARPE-19 cells. LC/MS analysis was performed using a Waters 2695 LC system coupled to an AB Sciex API2000 triple quadrupole mass spectrometer. […] The mass spectral analysis of the sphingolipid species was performed using electrospray ionization in the positive ion mode with multiple reaction monitoring (MRM). The following compound-specific transitions for precursor and characteristic product ions were used: 538 → 264 for C16 Ceramide (Cer); 540 → 266 for C16 dihydroceramide (DHCer); 566 →264 for C18 Cer; and 568 → 266 for C18 DHCer. Data was acquired and analyzed using Analyst software v 1.5 (AB Sciex).
The ratio of substrate to product for C16 and C18 ceramides (dihydroceramide/ceramide) in the presence of DMSO or inhibitors was determined by LC/MS.
Lipids were extracted from one 100 mm Petri dish for each biological replicate and subjected to mass spectrometry analysis. Data plotted as means±standard deviation; n = 3.

In the next test the target is T2, RARβ (Homo sapiens, UniProt P10826).
T2 sequence (P10826 183-417 limits assumed): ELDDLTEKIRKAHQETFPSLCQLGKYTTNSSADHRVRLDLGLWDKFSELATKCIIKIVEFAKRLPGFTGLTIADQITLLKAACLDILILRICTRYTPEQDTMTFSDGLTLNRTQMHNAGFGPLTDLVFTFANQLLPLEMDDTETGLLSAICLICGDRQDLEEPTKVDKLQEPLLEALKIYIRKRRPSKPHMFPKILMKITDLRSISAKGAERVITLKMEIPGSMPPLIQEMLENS
Nature of the test: GeneBLAzer RAR-beta DA assay, antagonist mode (competition with at-RA). Particulars: for competition with all-trans-retinoic acid: at-RA 0.5–1.5 nM, tested 10^−5 to 10^−9 M. It counts as cell-based. On the procedure:
The potency of agonists and antagonists was measured by GeneBLAzer RAR-beta DA Assay Kit (ThermoFisher Scientific) according to the manufacturer’s recommendations.
The phenylretinamides may have the ability to modulate the expression of proteins and induce cell apoptosis via RAR-dependent and -independent pathways. […] Additionally, apoptosis of neuroblastoma cell lines was blocked by two retinoic acid receptor (RAR)-β/γ-specific antagonists, but not by a RARα-specific antagonist. […] However, in this case the specific RARα-specific antagonist AGN194301 could block fenretinde-induced apoptosis. […] Human retina-derived cells in culture show differences in expression of RAR receptors. […] Clonetics HRPE primary human cells specifically express only RARβ [50].
Fluorescence was measured at excitation (ex) 409 nm/emission (em) 460 and at ex 409nm/em 530 nm and the ratio was determined and plotted against a range of concentrations (10^−5 to 10^−9 M) of the tested compounds.

A further test deals with SCD1. Kind of test: SCD1 protein expression in ARPE-19 cells (Western blot densitometry). It counts as cell-based, human. Particulars: 10 μM. On the procedure:
Compounds were dissolved in dimethyl sulfoxide (DMSO) and then added to the cell culture medium. Cells designated as control received an equal amount of dimethyl sulfoxide. After 16 h, cells were incubated with 50 μM palmitic acid triply deuterated (D3) on the methyl group (Cambridge Isotope Laboratories, Tewksbury, MA) for an additional 5 h before harvesting.
Samples were resuspended in 20 μl 4X reducing NuPAGE LDS sample buffer (Invitrogen). For western blot analysis, equal amounts of total protein (50 μg) from cell extracts were subjected to SDS-polyacrylamide gel electrophoresis using 4–12% NUPAGE Bis-Tris gels and then transferred to a nitrocellulose membrane using iBlot® Dry Blotting System (Invitrogen, Carlsbad, CA). After blocking in 5% non-fat milk in Tris-buffered saline (TBS) containing 0.01% Tween 20 for 1 h, the membranes were incubated overnight at 4°C with mouse monoclonal anti-SCD1 antibody (1:200; Kamiya Biomedical Company). Peroxidase-conjugated goat anti-mouse IgG antibody was used as secondary antibody. Immunocomplexes were visualized by a chemiluminescence method using the ECL Prime western blotting Detection Kit (GE Healthcare Life Sciences). The blots were then stripped and reprobed with mouse monoclonal anti-α-tubulin antibody.
Cell lysates were analyzed by Western blotting using mouse monoclonal antibody against SCD1 (upper panel) in comparison with immunoreactivity to α-tubulin which was employed as a loading control (lower panel) and densitometry for each lane was performed and analyzed by ImageJ to provide the SCD1/α-tubulin ratio for each lane. […] Free fatty acids present in lipid extracts were analyzed by LC/MS and SCD1 activity, measured by the conversion of methyl-D3 palmitic acid to methyl-D3 palmitoleic acid, was determined. […] Lipids were extracted from two 100 mm Petri dishes and combined for mass spectrometry analysis. Data plotted as means ± standard deviation; n = 3. […] They are given here as printed results in cells, but it is uncertain whether they fall under the exclusion for gels and blots. / Panel A: the Control lane (1.00) is left out because it is not a substance.
For orientation: In western blotting, separated proteins are transferred to a membrane and probed.

As to `O=C(O)c1ccccc1NC(=O)N1CCC(c2ccccc2C(F)(F)F)CC1` [A1120], on DES1, the “effect on DES1 activity / substrate accumulation” value is given as “do not lead to overaccumulation of substrate”; the “increase in dihydroceramide/ceramide ratio, C18 ceramide” value is reported as ~ 2 fold; the “MEAN RATIO (DH / C) C16” value was found to be 0.07; the “MEAN RATIO C18 DHCER/CER” value was 0.153 and 0.1528. At DES1 (single samples), the “CER (C16)” value was 18.30 and 24.15 and 18.55; the “CER (C18)” value is 11.60 and 16.65 and 11.05; the “Ceramide Content, C16 CER” value was 18.30 ng and 24.15 ng and 18.55 ng; the “Ceramide Content, C18 CER” value was 11.60 ng and 16.65 ng and 11.05 ng. Further, on DES1 (single samples), the “Mass Injected, C16 CER” value is 3.66 ng and 4.83 ng and 3.71 ng; the “Mass Injected, C18 CER” value is 2.32 ng and 3.33 ng and 2.21 ng; the “RATIO C18 DHCER/CER” value was 0.136 and 0.202 and 0.120. The “competition with all-trans-retinoic acid” value at RARβ was “cannot compete”. The “effect on SCD1 expression” value with SCD1 was “do not affect”.
Consider `CC1=C(/C=C/C(C)=C/C=C/C(C)=C/C(=O)Nc2ccc(O)cc2)C(C)(C)CCC1=O` [3-keto-HPR, 4-oxo-N-(4-hydroxyphenyl)retinamide], for which, on DES1, the “effect on DES1 activity / substrate accumulation” value was “inhibit DES1 activity”; the “increase in dihydroceramide/ceramide ratio, C18 ceramide” value was ~ 3 fold; the “MEAN RATIO (DH / C) C16” value was determined as 0.66. Besides, the “MEAN RATIO C18 DHCER/CER” value on DES1 (listed as 3-KETO-HPR) stood at 0.7062. Also, the “MEAN RATIO C18 DHCER/CER” value at DES1 (listed as KETO) came to 0.706. In addition, at DES1 (single samples), the “CER (C16)” value was 25.15 and 24.70 and 25.05; the “CER (C18)” value is 14.35 and 14.50 and 14.55; the “Ceramide Content, C16 CER” value is 25.15 ng and 24.70 ng and 25.05 ng; the “Ceramide Content, C16 DHCER” value was 19.55 ng and 15.70 ng and 14.55 ng. On DES1 (single samples), the “Ceramide Content, C18 CER” value is 14.35 ng and 14.50 ng and 14.55 ng; the “Ceramide Content, C18 DHCER” value was 9.70 ng and 11.25 ng; the “DHCER (C16)” value is 19.55 and 15.70 and 14.55; the “DHCER (C18)” value was 9.70 and 11.25. For the same compound, at DES1 (single samples), the “Mass Injected, C16 CER” value was 5.03 ng and 4.94 ng and 5.01 ng; the “Mass Injected, C16 DHCER” value was 3.910 ng and 3.140 ng and 2.910 ng; the “Mass Injected, C18 CER” value was 2.87 ng and 2.90 ng and 2.91 ng; the “Mass Injected, C18 DHCER” value is 1.94 ng and 2.25 ng. Besides, on DES1 (single samples), the “RATIO (DH / C) C16” value was 0.78 and 0.64 and 0.58; the “RATIO C18 DHCER/CER” value is 0.676 and 0.776 and 0.667. Moreover, in the test on SCD1, the “effect on SCD1 expression” value is on record as “more efficiently inhibits SCD1 expression”.
For `COc1ccc(NC(=O)/C=C(C)/C=C/C=C(C)/C=C/C2=C(C)CCCC2(C)C)cc1` [MPR, N-[4-methoxyphenyl]retinamide], at DES1, the “effect on DES1 activity / substrate accumulation” value was “do not lead to overaccumulation of substrate”; the “MEAN RATIO (DH / C) C16” value came out at 0.08; the “MEAN RATIO C18 DHCER/CER” value was 0.338 and 0.3375. At DES1 (single samples), the “CER (C16)” value is 20.40 and 20.30 and 18.55; the “CER (C18)” value was 14.65 and 15.00 and 13.65; the “Ceramide Content, C16 CER” value was 20.40 ng and 20.30 ng and 18.55 ng; the “Ceramide Content, C18 CER” value was 14.65 ng and 15.00 ng and 13.65 ng. Moreover, on DES1 (single samples), the “Ceramide Content, C18 DHCER” value was 5.30 ng and 4.97 ng and 4.35 ng; the “DHCER (C18)” value is 5.30 and 4.97; the “Mass Injected, C16 CER” value is 4.08 ng and 4.06 ng and 3.71 ng; the “Mass Injected, C18 CER” value was 2.93 ng and 3.00 ng and 2.73 ng. For the same compound, on DES1 (single samples), the “Mass Injected, C18 DHCER” value was 1.06 ng and 0.99 ng and 0.87 ng; the “RATIO C18 DHCER/CER” value was 0.362 and 0.331 and 0.319. On RARβ, the “competition with all-trans-retinoic acid” value is “cannot compete”. Further, the “effect on SCD1 expression” value with SCD1 was “do not affect”.
`CC1=C(/C=C/C(C)=C/C=C/C(C)=C/C(=O)Nc2ccc(O)cc2)C(C)(C)CCC1` [fenretinide, N-[4-hydroxyphenyl]retinamide]: the “effect on DES1 activity / substrate accumulation” value at DES1 is listed as “inhibit DES1 activity”. Also, at DES1 (single samples, listed as 4HPR), the “CER (C16)” value is 17.20 and 18.50 and 17.10; the “CER (C18)” value is 12.80 and 11.80 and 11.95; the “Ceramide Content, C16 CER” value was 17.20 ng and 18.50 ng and 17.10 ng; the “Ceramide Content, C16 DHCER” value is 6.15 ng and 4.01 ng and 5.75 ng. Also, on DES1 (single samples, listed as 4HPR), the “Ceramide Content, C18 CER” value is 12.80 ng and 11.80 ng and 11.95 ng; the “Ceramide Content, C18 DHCER” value is 9.30 ng and 7.50 ng and 7.25 ng; the “DHCER (C16)” value was 5.75 and 6.15 and 4.01; the “DHCER (C18)” value is 9.30 and 7.50 and 7.25. Also, on DES1 (single samples, listed as 4HPR), the “Mass Injected, C16 CER” value was 3.44 ng and 3.70 ng and 3.42 ng; the “Mass Injected, C16 DHCER” value is 1.230 ng and 0.801 ng and 1.150 ng; the “Mass Injected, C18 CER” value is 2.56 ng and 2.36 ng and 2.39 ng; the “Mass Injected, C18 DHCER” value was 1.86 ng and 1.50 ng and 1.45 ng. On RARβ (competition with 1 nM at-RA), the negative-log IC50 (pIC50) is 5.00. Besides, in the test on SCD1, the “effect on SCD1 expression” value is on record as “inhibitory effect on SCD1 expression”.

The pIC50 is the negative decadic logarithm of the IC50, by convention in mol/L.
